Test results published in PubChem BioAssay AID2060883 (Molecular Pharmacology Branch, DTP, NCI, 2025).

Test system: 843782-103-R-J1-PDC complex spheroid viability
Test: Anticancer human tumor 843782-103-R-J1-PDC patient-derived lung adenocarcinoma cell line growth inhibition [RAS]
Conditions: for IC50: curve of first compound; for viability, T/C: stronger effect = lower value
In short: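 Agents were tested in combination matrices in half-log decrements from a top concentration at or near clinical Cmax (10 microM if undetermined). Targets were multi-cell spheroids of tumour lines plus HUVEC and MSC stromal cells.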
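Further: viability read after seven days of compound exposure.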

SMILES: Cc1nc(N2CCC3(CC2)COC(C)C3N)c(CO)nc1Sc1ccnc(N)c1Cl (configuration not stated) + CCn1c(-c2cc(N3CCN(C)CC3)cnc2C(C)OC)c2c3cc(ccc31)-c1csc(n1)CC(NC(=O)C1CC1C)C(=O)N1CCCC(N1)C(=O)OCC(C)(C)C2
- IC50 (second compound 0.000949 µM): 51.5 nM
- IC50 (second compound 0.003 µM): 31.8 nM
- IC50 (second compound 0.00949 µM): < 31.6 nM
- IC50 (second compound 0.03 µM): < 31.6 nM
- IC50 (second compound 0.0949 µM): < 31.6 nM
- IC50 (second compound 0.3 µM): < 31.6 nM
- viability, T/C (second compound 0.000949 µM, first compound 0.0316 µM): 54.4%
- viability, T/C (second compound 0.000949 µM, first compound 0.1 µM): 42%
- viability, T/C (second compound 0.000949 µM, first compound 0.316 µM): 40.2%
- viability, T/C (second compound 0.000949 µM, first compound 1 µM): 23.5%
- viability, T/C (second compound 0.000949 µM, first compound 3.16 µM): 19.4%
- viability, T/C (second compound 0.000949 µM, first compound 10 µM): 19.2%
- viability, T/C (second compound 0.003 µM, first compound 0.0316 µM): 50%
- viability, T/C (second compound 0.003 µM, first compound 0.1 µM): 39.2%
- viability, T/C (second compound 0.003 µM, first compound 0.316 µM): 29.5%
- viability, T/C (second compound 0.003 µM, first compound 1 µM): 22.1%
- viability, T/C (second compound 0.003 µM, first compound 3.16 µM): 19.4%
- viability, T/C (second compound 0.003 µM, first compound 10 µM): 13.4%
- viability, T/C (second compound 0.00949 µM, first compound 0.0316 µM): 26.4%
- viability, T/C (second compound 0.00949 µM, first compound 0.1 µM): 25.6%
- viability, T/C (second compound 0.00949 µM, first compound 0.316 µM): 20%
- viability, T/C (second compound 0.00949 µM, first compound 1 µM): 19.6%
- viability, T/C (second compound 0.00949 µM, first compound 3.16 µM): 15.9%
- viability, T/C (second compound 0.00949 µM, first compound 10 µM): 15.1%
- viability, T/C (second compound 0.03 µM, first compound 0.0316 µM): 18.6%
- viability, T/C (second compound 0.03 µM, first compound 0.1 µM): 17.8%
- viability, T/C (second compound 0.03 µM, first compound 0.316 µM): 16.4%
- viability, T/C (second compound 0.03 µM, first compound 1 µM): 15.5%
- viability, T/C (second compound 0.03 µM, first compound 3.16 µM): 15.5%
- viability, T/C (second compound 0.03 µM, first compound 10 µM): 14.1%
- viability, T/C (second compound 0.0949 µM, first compound 0.0316 µM): 17.4%
- viability, T/C (second compound 0.0949 µM, first compound 0.1 µM): 13.6%
- viability, T/C (second compound 0.0949 µM, first compound 0.316 µM): 13.3%
- viability, T/C (second compound 0.0949 µM, first compound 1 µM): 13%
- viability, T/C (second compound 0.0949 µM, first compound 3.16 µM): 13.5%
- viability, T/C (second compound 0.0949 µM, first compound 10 µM): 12.2%
- viability, T/C (second compound 0.3 µM, first compound 0.0316 µM): 13.7%
- viability, T/C (second compound 0.3 µM, first compound 0.1 µM): 15.5%
- viability, T/C (second compound 0.3 µM, first compound 0.316 µM): 15.1%
- viability, T/C (second compound 0.3 µM, first compound 1 µM): 15.4%
- viability, T/C (second compound 0.3 µM, first compound 3.16 µM): 14%
- viability, T/C (second compound 0.3 µM, first compound 10 µM): 12.4%
